According to patent US7371766B2, “Curcumin analogs with anti-tumor and anti-angiogenic properties” (Emory University, priority 1999, dated 2008):

Legend:
[1] = test system: CCRF-CEM; conditions: for GI50: read-out: Median Growth Inhibitory Concentration (GI50), Leukemia, 48 hours
[2] = test system: K-562; conditions: 48 hours; for GI50: read-out: Median Growth Inhibitory Concentration (GI50), K-562, Leukemia
[3] = test system: MOLT-4; conditions: 48 hours; for GI50: read-out: Median Growth Inhibitory Concentration (GI50), MOLT-4, Leukemia
[4] = test system: A549; conditions: 48 hours; for GI50: read-out: Median Growth Inhibitory Concentration (GI50), A549, Non-Small Cell Lung Cancer
[5] = test system: EKVX; conditions: for GI50: read-out: Median Growth Inhibitory Concentration (GI50), Non-Small Cell Lung Cancer, 48 hours
[6] = test system: NCI-H23; conditions: 48 hours; for GI50: read-out: Median Growth Inhibitory Concentration (GI50), NCI-H23, Non-Small Cell Lung Cancer
[7] = test system: HCC-2998; conditions: 48 hours; for GI50: read-out: Median Growth Inhibitory Concentration (GI50), HCC-2998, Colon Cancer
[8] = test system: HCT-116; conditions: 48 hours; for GI50: read-out: Median Growth Inhibitory Concentration (GI50), HCT-116, Colon Cancer
[9] = test system: HCT-15; conditions: 48 hours; for GI50: read-out: Median Growth Inhibitory Concentration (GI50), HCT-15, Colon Cancer
[10] = test system: KM12; conditions: 48 hours; for GI50: read-out: Median Growth Inhibitory Concentration (GI50), KM12, Colon Cancer
[11] = test system: SW-620; conditions: 48 hours; for GI50: read-out: Median Growth Inhibitory Concentration (GI50), SW-620, Colon Cancer
[12] = test system: SF-268; conditions: 48 hours; for GI50: read-out: Median Growth Inhibitory Concentration (GI50), SF-268, CNS Cancer
[13] = test system: SF-295; conditions: 48 hours; for GI50: read-out: Median Growth Inhibitory Concentration (GI50), SF-295, CNS Cancer
[14] = test system: SF-539; conditions: 48 hours; for GI50: read-out: Median Growth Inhibitory Concentration (GI50), SF-539, CNS Cancer
[15] = test system: SNB-75; conditions: 48 hours; for GI50: read-out: Median Growth Inhibitory Concentration (GI50), SNB-75, CNS Cancer
[16] = test system: LOX IMVI; conditions: for GI50: read-out: Median Growth Inhibitory Concentration (GI50), Melanoma, 48 hours
[17] = test system: MALME-3M; conditions: for GI50: read-out: Median Growth Inhibitory Concentration (GI50), Melanoma, 48 hours
[18] = test system: M14; conditions: 48 hours; for GI50: read-out: Median Growth Inhibitory Concentration (GI50), M14, Melanoma
[19] = test system: SK-MEL-28; conditions: 48 hours; for GI50: read-out: Median Growth Inhibitory Concentration (GI50), SK-MEL-28, Melanoma
[20] = test system: UACC-257; conditions: 48 hours; for GI50: read-out: Median Growth Inhibitory Concentration (GI50), UACC-257, Melanoma
[21] = test system: UACC-62; conditions: 48 hours; for GI50: read-out: Median Growth Inhibitory Concentration (GI50), UACC-62, Melanoma
[22] = test system: IGROV1; conditions: 48 hours; for GI50: read-out: Median Growth Inhibitory Concentration (GI50), IGROV1, Ovarian Cancer
[23] = test system: OVCAR-3; conditions: 48 hours; for GI50: read-out: Median Growth Inhibitory Concentration (GI50), OVCAR-3, Ovarian Cancer
[24] = test system: OVCAR-4; conditions: 48 hours; for GI50: read-out: Median Growth Inhibitory Concentration (GI50), OVCAR-4, Ovarian Cancer
[25] = test system: OVCAR-8; conditions: 48 hours; for GI50: read-out: Median Growth Inhibitory Concentration (GI50), OVCAR-8, Ovarian Cancer
[26] = test system: 786-0; conditions: 48 hours; for GI50: read-out: Median Growth Inhibitory Concentration (GI50), 786-0, Renal Cancer
[27] = test system: PC-3; conditions: 48 hours; for GI50: read-out: Median Growth Inhibitory Concentration (GI50), PC-3, Prostate Cancer
[28] = test system: DU-145; conditions: 48 hours; for GI50: read-out: Median Growth Inhibitory Concentration (GI50), DU-145, Prostate Cancer
[29] = test system: NCI/ADR-RES; conditions: for GI50: read-out: Median Growth Inhibitory Concentration (GI50), Breast Cancer, 48 hours
[30] = test system: MDA-MB-231; conditions: 48 hours; for GI50: read-out: Median Growth Inhibitory Concentration (GI50), MDA-MB-231, Breast Cancer
[31] = test system: MDA-MB-435; conditions: 48 hours; for GI50: read-out: Median Growth Inhibitory Concentration (GI50), MDA-MB-435, Breast Cancer
[32] = test system: MDA-N; conditions: for GI50: read-out: Median Growth Inhibitory Concentration (GI50), Breast Cancer, 48 hours
[33] = read-out: Median Lethal Concentration (LC50), Melanoma, 48 hours, SRB assay
[34] = read-out: Median Lethal Concentration (LC50), Breast Cancer, 48 hours, SRB assay

## N.N.[Cl][Pt][Cl] [Cisplatin, reference compound]
[1]
  GI50: 0.2 µM
[2]
  GI50: 1 µM
[3]
  GI50: 0.3 µM
[4]
  GI50: 0.8 µM
[5]
  GI50: 1.6 µM
[6]
  GI50: 0.1 µM
[7]
  GI50: 0.1 µM
[8]
  GI50: 1.3 µM
[9]
  GI50: 1.6 µM
[10]
  GI50: 2 µM
[11]
  GI50: 0.8 µM
[12]
  GI50: 0.2 µM
[13]
  GI50: 0.3 µM
[14]
  GI50: 0.4 µM
[15]
  GI50: 0.6 µM
[16]
  GI50: 0.3 µM
[17]
  GI50: 0.2 µM
[18]
  GI50: 0.3 µM
[19]
  GI50: 0.8 µM
[20]
  GI50: 1 µM
[21]
  GI50: 0.3 µM
[22]
  GI50: 0.6 µM
[23]
  GI50: 1 µM
[24]
  GI50: 0.3 µM
[25]
  GI50: 1 µM
[26]
  GI50: 0.3 µM
[27]
  GI50: 1.6 µM
[28]
  GI50: 0.4 µM
[29]
  GI50: 0.8 µM
[30]
  GI50: 3.2 µM
[31]
  GI50: 1.6 µM
[32]
  GI50: 0.8 µM

## O=C1C(=Cc2ccccc2O)COCC1=Cc1ccccc1O [EF25, 3,5-Bis(2-hyrdoxybenzylidene)tetrahydro4-H-pyran4-one]
[1]
  GI50: 0.3 µM
[1]; read-out: Median Lethal Concentration (LC50), Leukemia, 48 hours, SRB assay
  CC50: > 100 µM
[2]
  GI50: 0.6 µM
[2]; read-out: Median Lethal Concentration (LC50), Leukemia, K-562, SRB assay
  CC50: 91.8 µM
[3]
  GI50: 0.4 µM
[3]; read-out: Median Lethal Concentration (LC50), Leukemia, MOLT-4, SRB assay
  CC50: > 100 µM
[4]
  GI50: 2.5 µM
[4]; read-out: Median Lethal Concentration (LC50), Non-Small Cell Lung Cancer, A549, SRB assay
  CC50: 71.8 µM
[5]
  GI50: 1.4 µM
[5]; read-out: Median Lethal Concentration (LC50), Non-Small Cell Lung Cancer, 48 hours, SRB assay
  CC50: 24.2 µM
[6]
  GI50: 1.7 µM
[6]; read-out: Median Lethal Concentration (LC50), Non-Small Cell Lung Cancer, NCI-H23, SRB assay
  CC50: 12.9 µM
[7]
  GI50: 1.5 µM
[7]; read-out: Median Lethal Concentration (LC50), Colon Cancer, HCT-2998, SRB assay
  CC50: 5.3 µM
[8]
  GI50: 0.8 µM
[8]; read-out: Median Lethal Concentration (LC50), Colon Cancer, HCT-116, SRB assay
  CC50: 11.1 µM
[9]
  GI50: 0.7 µM
[9]; read-out: Median Lethal Concentration (LC50), Colon Cancer, HCT-15, SRB assay
  CC50: 16.1 µM
[10]
  GI50: 0.3 µM
[10]; read-out: Median Lethal Concentration (LC50), Colon Cancer, KM12, SRB assay
  CC50: 10.7 µM
[11]
  GI50: 0.5 µM
[11]; read-out: Median Lethal Concentration (LC50), Colon Cancer, SW-620, SRB assay
  CC50: 75.3 µM
[12]
  GI50: 1.4 µM
[12]; read-out: Median Lethal Concentration (LC50), CNS Cancer, SF-268, SRB assay
  CC50: 43.3 µM
[13]
  GI50: 1.7 µM
[13]; read-out: Median Lethal Concentration (LC50), CNS Cancer, SF-295, SRB assay
  CC50: 35 µM
[14]
  GI50: 0.5 µM
[14]; read-out: Median Lethal Concentration (LC50), CNS Cancer, SF-539, SRB assay
  CC50: 16.8 µM
[15]
  GI50: 1.8 µM
[15]; read-out: Median Lethal Concentration (LC50), CNS Cancer, SNB-75, SRB assay
  CC50: 14 µM
[16]
  GI50: 0.2 µM
[16]; [33]
  CC50: 3.6 µM
[17]
  GI50: 1.9 µM
[17]; [33]
  CC50: 19.3 µM
[18]
  GI50: 1.8 µM
[18]; read-out: Median Lethal Concentration (LC50), Melanoma, M14, SRB assay
  CC50: 19.4 µM
[19]
  GI50: 2.4 µM
[19]; read-out: Median Lethal Concentration (LC50), Melanoma, SK-MEL-28, SRB assay
  CC50: 6.6 µM
[20]
  GI50: 1.6 µM
[20]; read-out: Median Lethal Concentration (LC50), Melanoma, UACC-257, SRB assay
  CC50: 8.2 µM
[21]
  GI50: 1.7 µM
[21]; read-out: Median Lethal Concentration (LC50), Melanoma, UACC-62, SRB assay
  CC50: 14.4 µM
[22]
  GI50: 0.8 µM
[22]; read-out: Median Lethal Concentration (LC50), Ovarian Cancer, IGROV1, SRB assay
  CC50: 14.5 µM
[23]
  GI50: 0.9 µM
[23]; read-out: Median Lethal Concentration (LC50), Ovarian Cancer, OVCAR-3, SRB assay
  CC50: 23.5 µM
[24]
  GI50: 2 µM
[24]; read-out: Median Lethal Concentration (LC50), Ovarian Cancer, OVCAR-4, SRB assay
  CC50: 23.3 µM
[25]
  GI50: 0.8 µM
[25]; read-out: Median Lethal Concentration (LC50), Ovarian Cancer, OVCAR-8, SRB assay
  CC50: 23 µM
[26]
  GI50: 0.4 µM
[26]; read-out: Median Lethal Concentration (LC50), Renal Cancer, 786-O, SRB assay
  CC50: 32.6 µM
[27]
  GI50: 0.5 µM
[27]; read-out: Median Lethal Concentration (LC50), Prostate Cancer, PC-3, SRB assay
  CC50: 24.8 µM
[28]
  GI50: 1.2 µM
[28]; read-out: Median Lethal Concentration (LC50), Prostate Cancer, DU-145, SRB assay
  CC50: 20.1 µM
[29]
  GI50: 1.6 µM
[29]; [34]
  CC50: 71 µM
[30]
  GI50: 1.9 µM
[30]; read-out: Median Lethal Concentration (LC50), Breast Cancer, MDA-MB-231, SRB assay
  CC50: 17.2 µM
[31]
  GI50: 1 µM
[31]; read-out: Median Lethal Concentration (LC50), Breast Cancer, MDA-MB-435, SRB assay
  CC50: 16.3 µM
[32]
  GI50: 1 µM
[32]; [34]
  CC50: 20 µM

## C(=C\c1ccccc1)/S/C=C/c1ccccc1 [EF15]
[1]
  GI50: 41.5 µM
[2]
  GI50: 78.5 µM
[3]
  GI50: > 100 µM
[4]
  GI50: > 100 µM
[5]
  GI50: 64 µM
[6]
  GI50: > 100 µM
[7]
  GI50: 31.6 µM
[8]
  GI50: > 100 µM
[9]
  GI50: 49.1 µM
[10]
  GI50: 55.7 µM
[11]
  GI50: 79.8 µM
[12]
  GI50: > 100 µM
[13]
  GI50: 80.9 µM
[14]
  GI50: > 100 µM
[15]
  GI50: 98.8 µM
[16]
  GI50: > 100 µM
[17]
  GI50: > 100 µM
[18]
  GI50: > 100 µM
[19]
  GI50: 83.7 µM
[20]
  GI50: 55.4 µM
[21]
  GI50: 66.7 µM
[22]
  GI50: > 100 µM
[23]
  GI50: > 100 µM
[24]
  GI50: > 100 µM
[25]
  GI50: > 100 µM
[26]
  GI50: > 100 µM
[27]
  GI50: > 100 µM
[28]
  GI50: > 100 µM
[29]
  GI50: > 100 µM
[30]
  GI50: > 100 µM
[31]
  GI50: 61.2 µM
[32]
  GI50: 67.8 µM

## 3,5-Bis(2-hydroxybenzylidene)-sulfone [EF11]
[1]
  GI50: 22 µM
[2]
  GI50: 27.4 µM
[3]
  GI50: 19.7 µM
[4]
  GI50: 38.7 µM
[5]
  GI50: 30.6 µM
[6]
  GI50: 35.8 µM
[7]
  GI50: 20.5 µM
[8]
  GI50: 36.8 µM
[9]
  GI50: 42.6 µM
[10]
  GI50: 19.1 µM
[11]
  GI50: 32.5 µM
[12]
  GI50: 24.6 µM
[13]
  GI50: 53.8 µM
[14]
  GI50: 39.9 µM
[15]
  GI50: 20.3 µM
[16]
  GI50: 40.3 µM
[17]
  GI50: 40.7 µM
[18]
  GI50: 33.9 µM
[19]
  GI50: 42.5 µM
[20]
  GI50: 29.8 µM
[21]
  GI50: 21.3 µM
[22]
  GI50: 35.9 µM
[23]
  GI50: 41.8 µM
[24]
  GI50: 28.7 µM
[25]
  GI50: 47.1 µM
[26]
  GI50: 41.3 µM
[27]
  GI50: 34.9 µM
[28]
  GI50: 29.9 µM
[29]
  GI50: 86.1 µM
[30]
  GI50: 25.6 µM
[31]
  GI50: 31.4 µM
[32]
  GI50: 36.9 µM
